The values that follow come from US20260167541A1, “BIOCIDAL CONTROL IN AQUEOUS MEMBRANE SEPARATION SYSTEMS” (Albemarle Corporation, priority 2023, published 2026).

SMILES strings stand for the structures.

In one assay the test system is biofilm. Description: Biofilm coupon test with modified Robbins device (ATP, RLU). It counts as cell-based, bacteria. Particulars: water upstream of and near the RO membrane; average of 3 or 4 coupons. As to the method:
(§1) Marsh water was fed into a storage tank via a 1200-foot long (365 m) hose. A biocide was added to the hose at a point 20 feet (6.1 m) before the hose connection to the storage tank. Water was fed from the storage tank to a reverse osmosis (RO) system equipped with an ultrafiltration (UF) membrane upstream of an RO membrane. In this system, the UF membrane was a non-protected membrane and the RO membrane was a protected membrane. An oxidation-reduction potential (ORP) electrode was in the water at a point upstream of and near the RO membrane, and the ORP electrode was connected to an ORP controller unit (ORP electrode: RD2, Hach Company). Measurements from the ORP were monitored, and the reducing agent was pumped into the RO system downstream of the ORP electrode as needed as indicated by the ORP reading from the ORP electrode. […]
(§2) The water was sampled at various times upstream of and near the UF membrane, and the water was also sampled at various times upstream of and near the RO membrane. […] Functionality of the RO membrane, types of microbes at RO membrane after treatment, biocide efficacy on microbes in water, and biocide efficacy for biofilm growth were determined. […]

A further assay deals with Yeast/mold. Kind of assay: Types of microbes at RO membrane after treatment (membrane autopsy): yeast/mold. The assay is classed as cell-based. Conditions: on RO membrane after 30 days of exposure to the biocide. As to the method: as §1, §2
The next assay concerns microbes in water. Description: Biocide efficacy on microbes in water (planktonic biocidal reduction, marsh water). The assay is classed as cell-based. As to the method: Marsh water was fed into a storage tank via a 1200-foot long (365 m) hose. A biocide was added to the hose at a point 20 feet (6.1 m) before the hose connection to the storage tank. Water was fed from the storage tank to a reverse osmosis (RO) system equipped with an ultrafiltration (UF) membrane upstream of an RO membrane. In this system, the UF membrane was a non-protected membrane and the RO membrane was a protected membrane. An oxidation-reduction potential (ORP) electrode was in the water at a point upstream of and near the RO membrane, and the ORP electrode was connected to an ORP controller unit (ORP electrode: RD2, Hach Company). Measurements from the ORP were monitored, and the reducing agent was pumped into the RO system downstream of the ORP electrode as needed as indicated by the ORP reading from the ORP electrode.
The biocides tested were bleach, 1,3-dibromo-5,5-dimethylhydantoin (Br2DMH; Albemarle Corporation), and an aqueous solution formed from bromine chloride and sulfamic acid containing over 50,000 ppm of active halogen having a pH in the range of 13 to 14 (BrCl/sulfamic acid; STABROM® 909 biocide, Albemarle Corporation). The reducing agent used with each biocide was […].
The water was sampled at various times upstream of and near the UF membrane, and the water was also sampled at various times upstream of and near the RO membrane. The duration of testing for each biocide was approximately 30 days. Functionality of the RO membrane, types of microbes at RO membrane after treatment, biocide efficacy on microbes in water, and biocide efficacy for biofilm growth were determined.
For the data in Table 3, the water was sampled upstream of and near the UF membrane, and upstream of and near the RO membrane The data in Table 3 are an average of samples from several days for planktonic biocidal reduction.

A further assay has as its system Aerobic bacteria. Description: Types of microbes at RO membrane after treatment (membrane autopsy): aerobic bacteria. Conditions: on RO membrane after 30 days of exposure to the biocide. The assay is classed as cell-based. The protocol: as §1, §2
[1] abbreviates: untreated water to RO feed water.

In the case of `CC1(C)C(=O)N(Br)C(=O)N1Br` [Br2DMH, 1,3-dibromo-5,5-dimethylhydantoin], the “ATP on Polyamide coupon” value with biofilm was 5825 RLU. Besides, the Yeast/mold rating entry in the assay with Yeast/mold is “Low (0 to 100)”. In the assay with microbes in water (setting [1]), the “Log reduction, total (untreated to RO)” value stood at 2.1 and the “Reduction, total (untreated to RO)” value was 99.2%. In addition, the RO feed water in the assay with microbes in water (water sampled upstream of and near the RO membrane, average of samples from several days) stood at 2.2 log cfu/mL. Also, the UF feed water with microbes in water (water sampled upstream of and near the UF membrane, average of samples from several days) is listed as 3.1 log cfu/mL. Also, the Aerobic bacteria rating result with Aerobic bacteria is “High (10,000 to 1,000,000)”.
